Reference: patent US20130091932A1, “Process and Method for Broad Spectrum Amino Acid Challenged Urinary Organic Acids” (priority 2011, published 2013)

How the values were obtained:
[1] = up to 15 g, human studies; cited from earlier work
[2] = system: urinary metabolic markers; experiment: 38-person study: amino acid challenge, overnight urinary organic acid profile pre vs post challenge; assay type: in vivo, human; details: in some subjects
Experimental: An initial pilot study was conducted using 3 subjects. A second study was conducted using 38 adult subjects who were chosen as having no diagnosed diseases and normal work habits. […] On two consecutive nights urine was collected for performing analysis of 46 compounds included in a profile of organic acids. On the second night, a single bolus of crystalline pure L-amino acids was consumed dissolved in water. All amino acids used were L-stereoisomers unless designated otherwise by the “D-”prefix. In the 3-person pilot, dosing included tyrosine, valine, leucine, isoleucine, histidine, and tryptophan as free-form or chloride salts at a total load of approximately 400 mg/kg body weight. For the 38-subject study, the dosing formula included a similar mixture containing alanine, valine, leucine, isoleucine, histidine, and tryptophan. Table 1 summarizes the amino acids included in the challenge formula, urinary metabolic markers affected and related nutrients or metabolic effects. The Amino acid challenge dose protocol was as follows. For 2 consecutive nights, participants collected overnight urine specimens. On the second night, before going to bed, they took approximately 400 mg/kg body weight of the challenge dose of amino acids. […]

Structure (SMILES) | safety of administration [1] | levels of pyruvate, succinate, fumarate and malate [2]
N[C@@H](Cc1c[nH]cn1)C(=O)O [L-histidine] | administered safely | 
C[C@H](N)C(=O)O [L-alanine] |  | increased levels
